Test system: alfalfa
Assay: Cultivation of sprout food (alfalfa) in aqueous mineral solution: stem extension, flavor and taste panel
Format: in vivo
Details: aerial part (stem) height vs water control; each ingredient 1 (w/v)%; three days, 18° C.
From the text: Absorbent cotton was allowed to absorb aqueous solution containing on a dry solid basis 1 w/v % of mineral (sodium chloride) and 1 w/v % of α,α-trehalose or α-maltosyl α,α-trehalose and placed in a transparent container. One hundred per group commercialized alfalfa seeds were placed in the container. As references, waters containing either of mineral, α,α-trehalose or α-maltosyl α,α-trehalose were used. As a control, water was used. After covered with a transparent lid, the container was placed in a room under a borrowed light at 18° C. for three days to cultivate alfalfa. The grown alfalfa plants were measured to calculate average value of aerial part (stem) height. Relative extension rate was calculated in such a manner of comparing the average value of each sample with that of control. In addition, 20 panels were judged in view of flavor and taste in such a manner of comparing each sample with control cultivated in water.

Row | SMILES | Relative extension (%)
1 | OC[C@H]1O[C@H](O[C@H]2O[C@H](CO)[C@@H](O)[C@H](O)[C@H]2O)[C@H](O)[C@@H](O)[C@@H]1O [α,α-Trehalose, α,α-trehalose] | 101
2 | OC[C@H]1O[C@H](O[C@H]2O[C@H](CO)[C@@H](O[C@H]3O[C@H](CO)[C@@H](O[C@H]4O[C@H](CO)[C@@H](O)[C@H](O)[C@H]4O)[C@H](O)[C@H]3O)[C@H](O)[C@H]2O)[C@H](O)[C@@H](O)[C@@H]1O [α-Maltosyl α,α-trehalose, α-maltosyl α,α-trehalose] | 105

Source: patent US20070232563A1, “Method for Enhancing Biological Activity and/or Expanding Suitable Region for Biological Activity of Living Body Contacting with Aqueous Environment” (Kabushiki Kaisha Hayashibara Seibutsu Kagaku Kenky, priority 2004, published 2007)
